Experimental findings from PMC8393474, “The Interaction of Hemin, a Porphyrin Derivative, with the Purified Rat Brain 2-Oxoglutarate Carrier” (Biomolecules, 2021) are described below.

The IC50 is the point on the concentration scale where inhibition reaches its midpoint. Higher therefore signals weaker potency in that assay.

This assay addresses T1, 2-oxoglutarate carrier (OGC) (Rattus norvegicus, UniProt P97700).
T1 construct: gene Slc25a11; native carrier purified from rat brain mitochondria, reconstituted into proteoliposomes
T1 sequence (P97700 2-314): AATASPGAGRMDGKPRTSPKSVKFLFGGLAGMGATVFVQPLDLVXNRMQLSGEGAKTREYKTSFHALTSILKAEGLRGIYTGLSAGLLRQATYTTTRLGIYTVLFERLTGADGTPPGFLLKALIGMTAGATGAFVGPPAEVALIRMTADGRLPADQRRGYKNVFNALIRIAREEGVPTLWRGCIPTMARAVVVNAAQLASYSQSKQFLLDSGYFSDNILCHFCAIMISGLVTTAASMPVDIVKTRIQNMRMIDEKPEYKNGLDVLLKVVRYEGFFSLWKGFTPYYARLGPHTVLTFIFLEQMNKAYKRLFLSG
Briefly: inhibition of […] 2-oxoglutarate or […] malate uptake in proteoliposomes reconstituted with purified OGC; Lineweaver-Burk and Dixon plots. The assay is classed as biochemical.

`C=CC1=C(C)C2=Cc3c(C=C)c(C)c4[n]3[Fe]([Cl])[n]3c(c(C)c(CCC(=O)O)c3=CC3=NC(=C4)C(C)=C3CCC(=O)O)=CC1=N2` [hemin] came in with an IC50 of 1580 ± 220 nM.
